This note sets out measurements from patent publication US10344019B2 (priority 2010, dated 2019).

Assay type in all cases: cell-based
The subject of assay [1] is HCV 1a RLuc cells (dicistronic genotype 1a H77 replicon, RLuc reporter). The assay can be described thus: microbe, parasite or virus in culture. Conditions: Hepatitis C virus, read-out: 1a. The method in brief: (§1)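 Renilla luciferase HCV replicon cells: dicistronic 1b Con1, 1a H77 or 2a JFH-1 replicons, or a JFH-1 chimera carrying J6 NS5A (M31 present). Compound in DMSO serial dilutions, 72 h incubation, then lysis and luciferase read. EC50 by non-linear regression.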

Assay [2] concerns HCV 1b RLuc cells (dicistronic genotype 1b Con1 replicon, RLuc reporter). The assay can be described thus: microbe, parasite or virus in culture. Conditions: Hepatitis C virus, read-out: 1b (nM). Put shortly: as §1
In assay [3] the test system is HCV 2a JFH-1 Rluc cells (dicistronic genotype 2a JFH-1 replicon, RLuc reporter). As to the kind of experiment: microbe, parasite or virus in culture. Conditions: Hepatitis C virus, read-out: 2a JFH. The method in brief: as §1
The test system of assay [4] is HCV 2b Rluc cells (NS5A chimeric genotype 2a JFH-1 replicon with genotype 2b MD2b-1 NS5A gene, M31 present). As to the kind of experiment: microbe, parasite or virus in culture. Conditions: Hepatitis C virus, read-out: 2b. Put shortly:
(§2)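 Replicon cells stably carrying the listed RLuc-encoding dicistronic replicons were seeded and treated with DMSO serial dilutions of compound (10 mM stocks) diluted into culture medium. After 72 h, cells were lysed and Renilla luciferase activity measured. EC50 was derived by non-linear regression.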

Assay [5] deals with HCV 3a RLuc cells (NS5A chimeric genotype 1b Con1 replicon with consensus genotype 3a NS5A gene). As to the kind of experiment: microbe, parasite or virus in culture. Conditions: Hepatitis C virus. The method in brief:
as §2

Assay [6] relates to HCV 4a Rluc cells (NS5A chimeric genotype 1b Con1 replicon with genotype 4a NS5A gene). As to the kind of experiment: microbe, parasite or virus in culture. Conditions: Hepatitis C virus, read-out: 4a. The method in brief: as §2
For assay [7], the system named is Q30R in genotype 1a NS5A, 1a Rluc replicon transfected into Huh-7 cured-51 cells. As to the kind of experiment: HCV replicon assay, resistance mutant 1a Q30R. Conditions: Hepatitis C virus, Huh-7, read-out: 1a Q30R. The method in brief:
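Cells were Huh-7 cured-51 transfected with replicon RNA of a genotype 1a H77 RLuc replicon carrying site-directed Q30R in NS5A.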
Background: In antiviral work, replicon cells carry a viral genome segment that copies itself.

Assay [8] relates to HCV 2a Rluc cells (NS5A chimeric genotype 2a JFH-1 replicon with genotype 2a J6 strain NS5A gene, M31 present). As to the kind of experiment: HCV replicon reporter assay, genotype 2a J6 (M31 present). Conditions: Hepatitis C virus, read-out: 2a J6. The method in brief:
as §1

The mark [9] stands for this setting: genotype 2a JFH-1 RLuc replicon.
The mark [10] stands for this setting: read-out: 3a, genotype 3a NS5A chimeric replicon.

Where two headings read alike, the source gives them in different places.

Take `COC[C@H]1C[C@@H](c2nc3ccc4cc(-c5ccc6c(ccc7nc([C@@H]8C[C@H](SC)CN8C(=O)[C@@H](NC(=O)OC)C(C)C)[nH]c76)c5)ccc4c3[nH]2)N(C(=O)[C@H](NC(=O)OC)c2ccccc2)C1` [Example 546]: the EC50 was 0.001 to 0.999 nM in assay [1] (genotype 1a H77 RLuc replicon); 0.048 nM in assay [2]; 0.001 to 0.999 nM in assay [3] (setting [9]); 0.001 to 0.999 nM in assay [4]; 0.001 to 0.99 nM in assay [5] (setting [10]); 0.001 to 0.99 nM in assay [6]. Further, the EC50 in assay [7] and in assay [8] was 0.001 to 0.999 nM in each case.

For `COC[C@H]1C[C@@H](c2nc3ccc4cc5c(cc4c3[nH]2)OCc2cc(-c3cnc([C@@H]4C[C@H](C)CN4C(=O)[C@@H](NC(=O)OC)C(C)C)[nH]3)ccc2-5)N(C(=O)[C@H](NC(=O)OC)c2ccccc2)C1` [Example 555], the EC50 in assay [1] (genotype 1a H77 RLuc replicon) was 0.001 to 0.999 nM; in assay [2], 0.021 nM; in assay [3] (setting [9]), 0.001 to 0.999 nM; in assay [4], 0.001 to 0.999 nM; in assay [5] (setting [10]) it was 0.001 to 0.99 nM; in assay [6], 0.001 to 0.99 nM. Besides, the EC50 in assay [7] and in assay [8] was 0.001 to 0.999 nM throughout.

For the compound `COC[C@H]1C[C@@H](c2nc3ccc4cc(-c5ccc(-c6cnc([C@@H]7CCCN7C(=O)[C@@H](NC(=O)OC)C(C)C)[nH]6)cc5OC(F)F)ccc4c3[nH]2)N(C(=O)[C@H](NC(=O)OC)c2ccccc2)C1` [Example 567], the EC50 is 0.001 to 0.999 nM in assay [1] (genotype 1a H77 RLuc replicon); 0.007 nM in assay [2]; 0.001 to 0.999 nM in assay [3] (setting [9]); 0.001 to 0.999 nM in assay [4]; 0.001 to 0.99 nM in assay [5] (setting [10]); 0.001 to 0.99 nM in assay [6]. The EC50 in assay [7] and in assay [8] was 0.001 to 0.999 nM each time.

As for `COC[C@H]1C[C@@H](c2nc3ccc4cc(-c5ccc6c(ccc7nc([C@@H]8C[C@H](C)CN8C(=O)[C@@H](NC(=O)OC)C(C)C)[nH]c76)c5)ccc4c3[nH]2)N(C(=O)[C@@H](NC(=O)OC)[C@@H](C)OC)C1` [Example 559], the EC50 is 0.001 to 0.999 nM in assay [1] (genotype 1a H77 RLuc replicon); 0.08 nM in assay [2]; 0.001 to 0.999 nM in assay [3] (setting [9]); 0.001 to 0.999 nM in assay [4]; 0.001 to 0.99 nM in assay [5] (setting [10]); 0.001 to 0.99 nM in assay [6]. For the same compound, the EC50 in assay [7] and in assay [8] was 0.001 to 0.999 nM in each case.

As to `COC(=O)N[C@H](C(=O)N1[C@H]2CC[C@H](C2)[C@H]1c1nc2ccc3cc(-c4ccc5c(ccc6nc([C@@H]7CCCN7C(=O)[C@H](NC(=O)OC)c7ccccc7)[nH]c65)c4)ccc3c2[nH]1)C(C)C` [Example 430], the EC50 was 0.001 to 0.999 nM in assay [1] (genotype 1a replicon); 0.036 nM in assay [2]; 0.001 to 0.999 nM in assay [3] (genotype 2a JFH-1 replicon); 0.001 to 0.999 nM in assay [4]; 0.001 to 0.99 nM in assay [5] (read-out: 3a, genotype 3a replicon); 0.001 to 0.99 nM in assay [6]. The EC50 in assay [7] fell in the range of 1 to 44 nM; in assay [8], 0.001 to 0.999 nM.

With `COC[C@H]1C[C@@H](c2ncc(-c3cc4c5c(c3)OCc3cc(-c6cnc([C@@H]7CC[C@H](C)N7C(=O)[C@@H](NC(=O)OC)C(C)C)[nH]6)cc(c3-5)OC4)[nH]2)N(C(=O)[C@H](NC(=O)OC)c2ccccc2)C1` [Example 596], the EC50 in assay [1] (genotype 1a H77 RLuc replicon) was 0.001 to 0.999 nM; in assay [2] it was 0.013 nM; in assay [3] (setting [9]) it was 0.001 to 0.999 nM; in assay [4], 0.001 to 0.999 nM; in assay [5] (setting [10]) it was 0.001 to 0.99 nM; in assay [6], 0.001 to 0.99 nM. The EC50 in assay [7] and in assay [8] was 0.001 to 0.999 nM in each case.

Consider `COC[C@H]1C[C@@H](c2nc3ccc4cc5c(cc4c3[nH]2)OCc2cc(-c3cnc([C@@H]4C[C@H]6C[C@H]6N4C(=O)[C@@H](NC(=O)OC)C(C)C)[nH]3)ccc2-5)N(C(=O)[C@H](NC(=O)OC)c2ccccc2)C1` [Example 539], for which the EC50 in assay [1] (genotype 1a H77 RLuc replicon) is 0.001 to 0.999 nM; in assay [2], 0.016 nM; in assay [3] (setting [9]), 0.001 to 0.999 nM; in assay [4] it was 0.001 to 0.999 nM; in assay [5] (setting [10]), 0.001 to 0.99 nM; in assay [6], 0.001 to 0.99 nM. Moreover, the EC50 in assay [7] and in assay [8] was 0.001 to 0.999 nM throughout.
